Data as given in ChEMBL document CHEMBL5113415, “Synthesis of 10,10'-bis(trifluoromethyl) marinopyrrole A derivatives and evaluation of their antiviral activities in vitro” (Eur J Med Chem, 2022).

Assays:
[1] = tested on: Dengue virus; assay: Antiviral activity against DENV-NGC-1 infected in […] incubated for 7 days by CellTiter 96 luminescent cell viability assay; assay type: functional, organism-based; settings: NGC-1, BHK, 168 h
[2] = tested on: Zika virus; assay: Antiviral activity against ZIKV-SMGC-1 infected in […] incubated for 7 days by CellTiter 96 luminescent cell viability assay; assay type: functional, organism-based; settings: SMGC-1, BHK, 168 h
[3] = tested on: Japanese encephalitis virus; assay: Antiviral activity against JEV-SA14 infected in […] incubated for 7 days by CellTiter 96 luminescent cell viability assay; assay type: functional, organism-based; settings: 168 h
[4] = tested on: Yellow fever virus; assay: Antiviral activity against YFV-17D infected in […] incubated for 7 days by CellTiter 96 luminescent cell viability assay; assay type: functional, organism-based; settings: 168 h
[5] = tested on: Enterovirus A71; assay: Antiviral activity against EV71 infected in human RD cells incubated for 3 days by CellTiter 96 luminescent cell viability assay; assay type: functional, organism-based; settings: Enterovirus A, 71, RD, 72 h
[6] = tested on: Coxsackievirus A16; assay: Antiviral activity against CA16 infected in human RD cells incubated for 3 days by CellTiter 96 luminescent cell viability assay; assay type: functional, organism-based; settings: Enterovirus A, 72 h
[7] = Cytotoxicity against human RD cells infected with EV71 incubated for 3 days by CellTiter 96 luminescent cell viability assay; assay type: toxicity, cell-based; settings: time 3 day
[8] = Cytotoxicity against human RD cells infected with CA16 incubated for 3 days by CellTiter 96 luminescent cell viability assay; assay type: toxicity, cell-based; settings: time 3 day
[9] = Selectivity index, ratio of CC50 for human RD cells to IC50 for EV71 infected in human RD cells; assay type: toxicity, cell-based; settings: read-out: Ratio CC50/IC50
[10] = Selectivity index, ratio of CC50 for human RD cells to IC50 for CA16 infected in human RD cells; assay type: toxicity, cell-based; settings: read-out: Ratio CC50/IC50
[11] = Cytotoxicity against […] infected with DENV-NGC-1 incubated for 7 days by CellTiter 96 luminescent cell viability assay; assay type: toxicity, cell-based; settings: time 7 day
[12] = Selectivity index, ratio of CC50 for […] to IC50 for ZIKV-SMGC-1 infected in […]; assay type: toxicity, cell-based; settings: read-out: Ratio CC50/IC50
[13] = Selectivity index, ratio of CC50 for […] to IC50 for DENV-NGC infected in […]; assay type: toxicity, cell-based; settings: read-out: Ratio CC50/IC50
[14] = Cytotoxicity against […] infected with JEV-SA14 incubated for 7 days by CellTiter 96 luminescent cell viability assay; assay type: toxicity, cell-based; settings: time 7 day
[15] = Cytotoxicity against […] infected with YFV-17D incubated for 7 days by CellTiter 96 luminescent cell viability assay; assay type: toxicity, cell-based; settings: time 7 day
[16] = tested on: Coxsackievirus; assay: Antiviral activity against CA6 infected in human RD cells incubated for 3 days by CellTiter 96 luminescent cell viability assay; assay type: functional, organism-based; settings: A6, RD, 72 h
[17] = Cytotoxicity against human RD cells infected with CA6 incubated for 3 days by CellTiter 96 luminescent cell viability assay; assay type: toxicity, cell-based; settings: time 3 day
[18] = Selectivity index, ratio of CC50 for […] to IC50 for JEV-SA14 infected in […]; assay type: toxicity, cell-based; settings: read-out: Ratio CC50/IC50
[19] = Selectivity index, ratio of CC50 for […] to IC50 for YFV-17D infected in […]; assay type: toxicity, cell-based; settings: read-out: Ratio CC50/IC50
[20] = Selectivity index, ratio of CC50 for human RD cells to IC50 for CA6 infected in human RD cells; assay type: toxicity, cell-based; settings: read-out: Ratio CC50/IC50
[21] = Cytotoxicity against […] infected with ZIKV-SMGC-1 incubated for 7 days by CellTiter 96 luminescent cell viability assay; assay type: toxicity, cell-based; settings: time 7 day

SMILES | IC50 [1] | IC50 [2] | IC50 [3] | IC50 [4] | IC50 [5] | IC50 [6] | CC50 at 72 h [7] | CC50 at 72 h [8] | selectivity ratio [9] | selectivity ratio [10] | CC50 at 168 h [11] | selectivity ratio [12] | selectivity ratio [13] | CC50 at 168 h [14] | CC50 at 168 h [15] | selectivity ratio [18] | selectivity ratio [19] | CC50 at 168 h [21] | further results
O=C(c1ccc(C(F)(F)F)cc1O)c1[nH]c(Cl)c(Cl)c1-n1c(C(=O)c2ccc(C(F)(F)F)cc2O)cc(Cl)c1Cl | > 300 nM | > 300 nM | > 200000 nM | > 200000 nM | 60 nM | 10 nM | 120 nM | 250 nM | 1.96 | 24.6 |  |  |  |  |  |  |  |  | 
O=C(c1ccc(C(F)(F)F)cc1O)c1[nH]c(Cl)c(Cl)c1-n1c(C(=O)c2ccc(C(F)(F)F)cc2O)cc(Cl)c1SCc1cccnc1 | 240 nM | 280 nM |  |  | 270 nM | 100 nM | 570 nM | 860 nM | 2.1 | 8.61 | 320 nM | 1.14 | 1.33 |  |  |  |  |  | 
O=C(c1ccc(C(F)(F)F)cc1O)c1[nH]c(Cl)c(Cl)c1-n1c(C(=O)c2ccc(C(F)(F)F)cc2O)cc(Cl)c1Sc1ccccn1 |  |  | 210 nM | 50 nM |  | 10 nM |  | 230 nM |  | 22.8 |  |  |  | 230 nM | 230 nM | 1.1 | 4.6 |  | IC50 [16]: 190 nM; CC50 at 72 h [17]: 230 nM; selectivity ratio [20]: 1.2
CN(C)CCn1nnnc1Sc1c(Cl)cc(C(=O)c2ccc(C(F)(F)F)cc2O)n1-c1c(C(=O)c2ccc(C(F)(F)F)cc2O)[nH]c(Cl)c1Cl | 1870 nM | 1690 nM | 2110 nM | 1970 nM | 2470 nM |  | 3170 nM |  | 1.28 |  | 2820 nM | 1.67 | 1.51 | 4140 nM | 4140 nM | 1.96 | 2.1 | 2820 nM | 
O=C(c1ccc(C(F)(F)F)cc1O)c1[nH]c(Cl)c(Cl)c1-n1c(C(=O)c2ccc(C(F)(F)F)cc2O)cc(Cl)c1Sc1nnnn1CCO |  | 6410 nM |  | 8310 nM | 4770 nM | 2510 nM | 10800 nM | 15300 nM | 2.27 | 6.1 |  | 1.25 |  |  | 12200 nM |  | 1.47 | 8010 nM | 
O=C(c1ccc(C(F)(F)F)cc1O)c1[nH]c(Cl)c(Cl)c1-n1c(C(=O)c2ccc(C(F)(F)F)cc2O)cc(Cl)c1SCCc1ccccn1 |  | 150 nM | 620 nM | 570 nM | 50 nM | 20 nM | 270 nM | 350 nM | 5.4 | 17.5 |  | 4.07 |  | 610 nM | 610 nM | 0.98 | 1.07 | 25400 nM | 
O=C(c1ccc(C(F)(F)F)cc1O)c1[nH]c(Cl)c(Cl)c1-n1c(C(=O)c2ccc(C(F)(F)F)cc2O)cc(Cl)c1Sc1nc2cccnc2[nH]1 | 22800 nM | 31400 nM | 24400 nM | 19700 nM |  | 5900 nM |  | 19900 nM |  | 3.37 | 17100 nM | 0.54 | 0.75 | 19200 nM | 19300 nM | 0.79 | 0.98 | 1800 nM | 
O=C(c1ccc(C(F)(F)F)cc1O)c1[nH]c(Cl)c(Cl)c1-n1c(C(=O)c2ccc(C(F)(F)F)cc2O)cc(Cl)c1SCCCO | 230 nM | 100 nM | 230 nM | 200 nM |  |  |  |  |  |  | 1420 nM | 14.2 | 6.17 | 1420 nM | 1420 nM | 6.17 | 7.1 |  | IC50 [16]: 260 nM; CC50 at 72 h [17]: 1040 nM; selectivity ratio [20]: 4
Cc1nnc(Sc2c(Cl)cc(C(=O)c3ccc(C(F)(F)F)cc3O)n2-c2c(C(=O)c3ccc(C(F)(F)F)cc3O)[nH]c(Cl)c2Cl)s1 | 760 nM | 780 nM | 930 nM | 850 nM |  | 280 nM |  | 2640 nM |  | 9.43 | 440 nM | 0.57 | 0.58 | 1720 nM | 1720 nM | 1.85 | 2.02 | 440 nM | 
O=C(c1ccc(C(F)(F)F)cc1O)c1[nH]c(Cl)c(Cl)c1-n1c(C(=O)c2ccc(C(F)(F)F)cc2O)cc(Cl)c1Sc1nc2ccccc2[nH]1 | 21600 nM | 14500 nM |  | 23200 nM |  | 9130 nM |  | 45600 nM |  | 5 | 25300 nM | 1.75 | 1.17 |  | 30800 nM |  | 1.33 | 110 nM | 
O=C(c1ccc(C(F)(F)F)cc1O)c1[nH]c(Cl)c(Cl)c1-n1c(C(=O)c2ccc(C(F)(F)F)cc2O)cc(Cl)c1Sc1cnccn1 | 290 nM | 250 nM | 600 nM | 840 nM |  | 180 nM |  | 11000 nM |  | 60.9 | 1460 nM | 5.85 | 5.03 | 1210 nM | 1220 nM | 2.02 | 1.45 | 1460 nM | 
O=C(c1ccc(C(F)(F)F)cc1O)c1[nH]c(Cl)c(Cl)c1-n1c(C(=O)c2ccc(C(F)(F)F)cc2O)cc(Cl)c1Sc1nc[nH]n1 |  | 5670 nM | 29400 nM | 24300 nM |  |  |  |  |  |  |  | 2.44 |  | 18700 nM | 18600 nM | 0.64 | 0.77 | 13800 nM | 
O=C(c1ccc(C(F)(F)F)cc1O)c1[nH]c(Cl)c(Cl)c1-n1c(C(=O)c2ccc(C(F)(F)F)cc2O)cc(Cl)c1Sc1nc2ccccc2s1 | 1040 nM | 910 nM | 700 nM | 820 nM |  | 130 nM |  | 1460 nM |  | 11.3 | 110 nM | 0.12 | 0.11 | 1180 nM | 1170 nM | 1.68 | 1.43 | 17100 nM | 
O=C(c1ccc(C(F)(F)F)cc1O)c1[nH]c(Cl)c(Cl)c1-n1c(C(=O)c2ccc(C(F)(F)F)cc2O)cc(Cl)c1Sc1ncc[nH]1 | 1150 nM | 970 nM | 1260 nM | 1280 nM |  |  |  |  |  |  | 3750 nM | 3.87 | 3.26 | 3750 nM | 3750 nM | 2.98 | 2.93 | 3750 nM | 
O=C(c1ccc(C(F)(F)F)cc1O)c1[nH]c(Cl)c(Cl)c1-n1c(C(=O)c2ccc(C(F)(F)F)cc2O)cc(Cl)c1SCCO | 150 nM | 70 nM | 680 nM | 600 nM | 550 nM |  | 1570 nM |  | 2.85 |  | 500 nM | 7.13 | 3.34 | 1450 nM | 1450 nM | 2.13 | 2.41 | 1420 nM | 
O=C(c1ccc(C(F)(F)F)cc1O)c1[nH]c(Cl)c(Cl)c1-n1c(C(=O)c2ccc(C(F)(F)F)cc2O)cc(Cl)c1Sc1cccc[n+]1[O-] | 3680 nM |  |  | 3130 nM |  | 1070 nM |  | 8510 nM |  | 7.95 | 8060 nM |  | 2.19 |  | 8060 nM |  | 2.58 |  | 
O=C(c1ccc(C(F)(F)F)cc1O)c1[nH]c(Cl)c(Cl)c1-n1c(C(=O)c2ccc(C(F)(F)F)cc2O)cc(Cl)c1SCc1ncccn1 |  |  |  |  | 200 nM | 80 nM | 560 nM | 830 nM | 2.78 | 10.4 |  |  |  |  |  |  |  | 610 nM | 
[N-]=[N+]=NCCCSc1c(Cl)cc(C(=O)c2ccc(C(F)(F)F)cc2O)n1-c1c(C(=O)c2ccc(C(F)(F)F)cc2O)[nH]c(Cl)c1Cl |  | 90 nM | 90 nM |  |  |  |  |  |  |  |  |  |  | 310 nM |  | 3.44 |  | 500 nM | 
